Source: ChEMBL document CHEMBL4673377 (Bioorg Med Chem Lett, 2021)
Activity calls are given as the source filed them. The calls are words filed in the database; no cut-off is given here.

Experiments:
[1] = Permeability of compound at pH 7.4 by PAMPA assay; type: ADME; settings: read-out: permeability
[2] = target: Kynurenine 3-monooxygenase (Mus musculus, UniProt Q91WN4)
Description: Inhibition of mouse liver mitochondrial KMO by measuring the 3-HK metabolite formation using L-kynurenine as substrate preincubated for 5 mins followed by substate addition and measured after 30 mins by LC-MS/MS analysis

[3] = Plasma concentration in mouse at 10 mg/kg, po after 1 hr; type: ADME, organism-based
[4] = Drug uptake in mouse brain at 10 mg/kg, po after 1 hr; type: ADME, organism-based; settings: read-out: Drug uptake
in vivo = settings: mouse, brain/plasma, po, 10 mg/kg
Description: Ratio of drug level in brain to plasma of mouse at 10 mg/kg, po after 1 hr

[5] = target: T1, Kynurenine 3-monooxygenase (Homo sapiens, UniProt O15229)
Target sequence in this assay (O15229 whole entry): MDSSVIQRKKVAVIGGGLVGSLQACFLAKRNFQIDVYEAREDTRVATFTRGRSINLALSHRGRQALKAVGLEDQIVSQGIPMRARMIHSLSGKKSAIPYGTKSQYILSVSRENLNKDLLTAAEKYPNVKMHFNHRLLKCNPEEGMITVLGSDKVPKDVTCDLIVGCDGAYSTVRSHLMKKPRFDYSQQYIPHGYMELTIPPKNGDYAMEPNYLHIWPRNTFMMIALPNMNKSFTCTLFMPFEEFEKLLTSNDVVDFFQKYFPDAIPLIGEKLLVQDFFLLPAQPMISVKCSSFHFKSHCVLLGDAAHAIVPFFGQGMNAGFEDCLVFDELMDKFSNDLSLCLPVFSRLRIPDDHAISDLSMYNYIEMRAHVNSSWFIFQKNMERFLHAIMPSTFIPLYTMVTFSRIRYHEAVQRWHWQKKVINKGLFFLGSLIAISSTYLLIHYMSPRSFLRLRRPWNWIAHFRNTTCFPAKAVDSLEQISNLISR
Description: Inhibition of KMO (unknown origin)

[6] = target: Kynurenine 3-monooxygenase (Mus musculus) (UniProt Q91WN4); test: Inhibition of mouse liver mitochondrial KMO by measuring the 3-HK metabolite formation at 100 nM using L-kynurenine as substrate preincubated for 5 mins followed by substate addition and measured after 30 mins by LC-MS/MS analysis relative to control; settings: Mitochondria, time 35.0 min
Mus musculus [7] = test: In vivo inhibition of KMO in R6/2 mouse model of HD assessed as decrease in 3-HK level in striatum at 100 mg/kg, po administered twice daily for 7 weeks starting from 5 weeks age; type: functional, organism-based
Mus musculus [8] = test: Cognitive enhancing effect in R6/2 mouse model of HD assessed as increase in spontaneous alteration at 100 mg/kg, po administered twice daily for 12 weeks starting from 5 weeks of age by Y-maze test; type: functional, organism-based
Mus musculus [9] = test: Effect on R6/2 mouse model of HD assessed as increase in latency to fall at 100 mg/kg, po administered twice daily for 11 weeks age starting from 5 weeks of age by rotarod test; type: functional, organism-based
[10] = target: T1, Kynurenine 3-monooxygenase; test: Inhibition of human liver mitochondrial KMO at by measuring the 3-HK metabolite formation at 100 nM using L-kynurenine as substrate preincubated for 5 mins followed by substate addition and measured after 30 mins by LC-MS/MS analysis relative to control; settings: Mitochondria, time 35.0 min
Target sequence in this assay (O15229 whole entry, looked up): as the sequence (O15229 whole entry) above

Sequence of Kynurenine 3-monooxygenase (Mus musculus, UniProt Q91WN4) (Q91WN4 whole entry): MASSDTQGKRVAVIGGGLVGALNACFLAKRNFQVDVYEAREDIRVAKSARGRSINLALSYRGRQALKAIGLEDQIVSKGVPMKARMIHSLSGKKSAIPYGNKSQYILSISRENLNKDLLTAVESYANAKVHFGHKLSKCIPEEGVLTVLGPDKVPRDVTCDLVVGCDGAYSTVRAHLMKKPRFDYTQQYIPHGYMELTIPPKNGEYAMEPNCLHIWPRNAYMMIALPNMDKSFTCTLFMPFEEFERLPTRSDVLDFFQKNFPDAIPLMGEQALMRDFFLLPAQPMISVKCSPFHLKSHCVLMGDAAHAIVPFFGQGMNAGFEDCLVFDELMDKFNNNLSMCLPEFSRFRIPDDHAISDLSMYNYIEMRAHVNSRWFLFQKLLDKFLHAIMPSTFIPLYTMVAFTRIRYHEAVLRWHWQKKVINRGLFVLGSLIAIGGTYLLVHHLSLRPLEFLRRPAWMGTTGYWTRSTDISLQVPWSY
Sequence of Kynurenine 3-monooxygenase (Mus musculus) (Q91WN4 whole entry, looked up): as the sequence (Q91WN4 whole entry) above

| Papp [1] [×10⁻⁶ cm/s] | IC50 [2] [nM] | concentration at 1 h [3] [ng/mL] | concentration at 1 h [4] [ng/g] | Kp at 1 h (in vivo) | SMILES | other results |
| --- | --- | --- | --- | --- | --- | --- |
| 35.7 | 4.5 | 185 | 25 | 0.136 | Cc1ccc(S(=O)(=O)Nc2ccc(-c3ccccc3N(C)C)nn2)cc1 |  |
| 43.5 | 1.7 | 215 | 51 | 0.235 | Cc1ccc(S(=O)(=O)Nc2ccc(-c3ccccc3N3CCCC3)nn2)cc1 |  |
| 50.6 |  | 808 | 230 | 0.282 | Cc1ccc(S(=O)(=O)Nc2ccc(-c3ccccc3N3CCCCC3)nn2)cc1 | Activity (Mus musculus [7]): Active; Activity (Mus musculus [8]): Active; Activity (Mus musculus [9]): Active |
|  | > 100 |  |  |  | Cc1ccc(S(=O)(=O)Nc2ccc(-c3ccccc3N3CCN(C)CC3)nn2)cc1 |  |
| 22.4 | 47.2 |  |  |  | Cc1ccc(S(=O)(=O)Nc2ccc(-c3cccc4ccncc34)nn2)cc1 |  |
| 49.2 | 29.1 |  |  |  | Cc1ccc(S(=O)(=O)Nc2ccc(-c3cccc4ccn(C)c34)nn2)cc1 |  |

More lines, now with the values behind:

| SMILES | Papp [1] [×10⁻⁶ cm/s] | IC50 [2] [nM] | concentration at 1 h [3] [ng/mL] | concentration at 1 h [4] [ng/g] | Kp at 1 h (in vivo) | other results |
| --- | --- | --- | --- | --- | --- | --- |
| CN(C)c1cccc(S(=O)(=O)Nc2ccc(-c3cccc(Cl)c3)nn2)c1 | 42.5 | 31.7 |  |  |  |  |
| Cc1ccc(S(=O)(=O)Nc2ccc(-c3ccc(N(C)C)cc3)nn2)cc1 |  | 546 |  |  |  |  |
| O=C(O)C1CC1C(=O)c1ccc(Cl)c(Cl)c1 (centres undefined) |  |  |  |  |  | IC50 [5]: 40 nM |
| Cc1cccc(S(=O)(=O)Nc2ccc(-c3cccc(Cl)c3)nn2)c1 | 40.2 | 101 |  |  |  |  |
| O=S(=O)(Nc1ccc(-c2cccc(Cl)c2)nn1)c1cccnc1 |  |  |  |  |  | inhibition [6]: 31% |
| O=C(O)c1cc(-c2ccc(Cl)c(OC3CC3)c2)ncn1 | 6.5 | 8.7 | 49100 | 177 | 0.004 |  |
| CCc1ccccc1-c1ccc(NS(=O)(=O)c2ccc(C)cc2)nn1 |  | 29.2 |  |  |  |  |
| Cc1ccc(S(=O)(=O)Nc2ccc(-c3cccc(N(C)C)c3)nn2)cc1 | 32.4 | 82.5 |  |  |  |  |
| COc1ccccc1-c1ccc(NS(=O)(=O)c2ccc(C)cc2)nn1 | 34.7 | 36.5 | 2520 | 131 | 0.052 |  |
| CN(C)c1ccccc1S(=O)(=O)Nc1ccc(-c2cccc(Cl)c2)nn1 | 35.7 | 118 |  |  |  |  |
| Cc1ccc(S(=O)(=O)Nc2ccc(-c3cccc4c3N(C)CC4)nn2)cc1 | 38.5 | 16.9 |  |  |  |  |
| O=S(=O)(Nc1ccc(-c2cccc(Cl)c2)nn1)c1ccccn1 |  |  |  |  |  | inhibition [6]: 16% |
| Cc1ccc(S(=O)(=O)Nc2ccc(-c3cccc4cccnc34)nn2)cc1 | 44.1 | 8.7 | 27900 | 2910 | 0.104 | inhibition [10]: 36% |
| Cc1ccc(S(=O)(=O)Nc2ccc(-c3ccccc3N3CCOCC3)nn2)cc1 | 44.3 | 3.9 | 931 | 69 | 0.076 |  |
| CN(C)c1ccc(S(=O)(=O)Nc2ccc(-c3cccc(Cl)c3)nn2)cc1 |  | 402 |  |  |  |  |
| CN(C)c1cccc(S(=O)(=O)Nc2ccc(-c3ccccc3N3CCCC3)nn2)c1 | 31.2 | 3.3 | 879 | 137 | 0.162 |  |
